Test results taken from patent publication US8785472B2, “Use of dextromethorphan in treating addictive behavior or bipolar disorder” (National Cheng Kung University, priority 2010, dated 2014).
Entries after “also recorded” stand apart in the source; their conditions may differ.

Legend:
[1] = system: plasma TNF-alpha, CRP, IL-1beta, IL-6, IL-8, BDNF; assay: Plasma immunological markers (ELISA) in the DM add-on methadone trial; format: in vivo, human; conditions: for plasma TNF-alpha concentration: FIG. 3
Procedure: • Human Cytokine Array I (Ray Biotech Inc., Norcross, Ga.) consisted of 23 different cytokine and chemokine antibodies spotted in duplicate onto a membrane (Dvorakova et al. 2004). The membranes were blocked with 10% bovine serum albumin in Tris-buffered saline according to the instructions of the manufacturer. One and a half milliliters of conditioned medium was added to each membrane in separate wells of a six-well plate. The membranes were shaken at 110 rpm at room temperature for an hour and a half. All washes were done in new six-well plates, according to the instructions of the manufacturer. Two milliliters of a 1:500 dilution of biotinconjugated antibodies was added to each membrane, and the mixture was incubated on a shaker for an hour and a half at room temperature. Following the wash, the membranes were incubated with a 1:40,000 dilution of strepavidin-conjugated peroxidase for 1 hour at room temperature, according to the instructions of the manufacturer. Following a thorough wash, the membranes were exposed to a peroxidase substrate (ChemGlow West; Alphalnnotech Corp., San Leandro, Calif.) for 5 min in the dark before imaging. Two or six individual membranes were placed side-by-side in a plastic protective folder and sealed. Imaging was done with a UVP AutoChemi imaging system within 30 min of exposure to the substrate. Exposure times ranged from 1 to 10 min. Chemiluminescence was quantified with LabWorks imaging and analysis software. Horseradish peroxidase (HRP)-conjugated antibody served as a positive substrate control at six spots and was also used to identify membrane orientation. For each spot the net density gray level was determined by subtracting the background gray levels from the total raw density gray levels. The relative fold difference in cytokine amount was determined in reference to the amount present on the control culture membrane based on the following: average treated culture cytokine spot gray levels/average control culture cytokine spot gray levels. 2. ELISA • Cytokine was quantified by using the Flexia antibody pair system (Bio-Source Intl., Camarillo, Calif.). Basically, the enzyme-linked immunosorbent assays (ELISAs) were optimized by using 96-well plates (MaxiSorp; Nalge Nunc International Corp., Naperville, Ill.) coated with 100 μl of strepavidin (Sigma, St. Louis, Mo.) at 5 μg/ml in water overnight at 37° C. or until all water was evaporated. All plates were stored desiccated at 4° C. until use. Biotinylated F(ab)2 coating antibody (5 μg/ml) was added to each well, and the plate was incubated at 37° C. for 2 hours. All wells were blocked and washed according to the instructions of the manufacturer. Standards or samples (100 μl) were added to the wells, and the plates were incubated at 37° C. for 1 hour. HRP-conjugated antibody (10 μg/ml) was added for an additional hour at 37° C. The plates were then washed thoroughly according to the instructions of the manufacturer. One hundred microliters of tetramethlybenzidine substrate (Roche, Indianapolis, Ind.) was added to each well, and the plates were held for 30 min in the dark. The reaction was stopped by the addition of 100 μl of 2 NH2SO4 to each well. The absorbance was read on an automated plate reader (Tecan U.S. Inc.) at 450 nm (reference wavelength, 650 nm). Values (in picograms per milliliter) were calculated from a standard curve. Samples were diluted up to 1:20, depending on the concentration.
The immunological parameters, C-reactive protein, TNF-α and interleukins was measured in the blood samples taken at Screen, week 1, week 4, week 8 and at the end of the study.

[2] = system: subjects with bipolar I or II disorder; assay: Double-blind DM add-on to valproate, 12 weeks: YMRS, HDRS, CGI; format: in vivo, human; conditions: for YMRS score: DM 60 mg/day add-on to VPA
Source text: Totally 292 male and female subjects with bipolar I or II disorder, from the Department of Psychiatry at National Cheng Kung University Hospital and National Defense Medical Center were recruited. […] The Institutional Review Board for the Protection of Human Subjects approved the study protocol by both medical centers.
The add-on double-blind study treatment with DM/place was commenced at randomization for 12 weeks while patients continue open-label VPA. Subjects were randomized to either with 60 mg per day of DM or placebo at Baseline and proceeded to double-blind Add-On Treatment. The treatment response and side effect were measured to clarify the curative effect of DM add-on therapy to VPA in the treatment of bipolar disorders. […] Concomitant benzodiazepine medication (preferably up to 8 mg lorazepam) was used for daytime sedation, agitation or insomnia during the study. Risperidone 1-6 mg/daily and fluoxetine 20 mg/daily were permitted during manic or depressive stage, and anticholinergic drug was also used for the extrapyramidal syndrome (EPS).
The Chinese version of the modified SADS-L, a semi-structured interview aimed at formulating the main diagnoses based upon DSM-IV criteria with good inter-rater reliability. This modified version of SADS-L with its diagnoses was used as the gold standard. The severity of current symptoms was assessed by using the YMRS and HDRS. The diagnoses of a mood disorder were made according to DSM-IV criteria, except for bipolar II disorder, where the duration criterion for hypomania of 4 days was left out but 2-day cutoff for hypomania was used instead, because the 4 days minimum duration might not be based on data and the newly adopted cutoff had been supported by several previous reports. The side effect was measured using Clinical Global Impression (CGI) at each visit point.
(§1) All of the above, vital sign, and immunological markers were measured at baseline, 1, 2, 4, 8 and 12 weeks. For the 30 subjects of health control were also recruited for comparing the immune markers. The degree of benefit on symptoms after the week 4, 8 and end of treatment due to add-on DM treatment to VPA in comparison with placebo using a main measure of total psychopathology. The safety and tolerability and measure and assess the changes of immunology, and clinical features between the group with add-on DM treatment with placebo from Baseline to the end of study were compared.
For each scale, data were analyzed using last observation carried forward (LOCF) method, in which the last observation was entered for missing visits. To assess the efficacy in various clinical domains and take into account patient effects, mixed-effects models (Lange & Ryan 1989) were used (with intercept as the random effects) for all normally distributed outcomes, with main effects for treatment (DM or placebo), time (0, 1, 2, 4, 8, 12 weeks), and the treatment×time interaction. The analysis of the response rate was intent to treat. All hypothesis tests were 2-sided and were conducted at α=0.05. The post hoc of independent t test was then used to examine which time point the effect of add-on treatment started. P<0.05 was considered statistically significant for all two-sided tests. Statistical analyses were carried out using SPSS for windows (version 15.0).

[3] = system: plasma TNF-α, IL-1β, IL-8, CRP, BDNF; assay: Plasma cytokine level (ELISA) in the DM add-on valproate trial; format: in vivo, human
Procedure: Blood routine, SGOT, SGPT, BUN and creatinine were measured only while the samples were taken at screen and at the end of the study. Plasma cytokine was quantified using the enzyme-linked immunosorbent assays (ELISAs). The Quantikine Human cytokine kit (R&D system), and Molecular Devices (SpectraMax-M2) ELISA reader were used to analyze the plasma cytokine level. The immunological parameters, BDNF, TNF-α, and interleukins were measured in the blood samples. The low limit sensitivity was 0.5 pg/ml, 0.125 pg/ml and 62.5 pg/ml for TNF-α, IL-1β and BDNF respectively. Finally, we used HPLC with UV detector to measure the plasma DM level.
as §1

[4] = system: rat primary mixed mesencephalic neuron-glia cultures; conditions: cited from earlier work
LPS and MPTP PD models = conditions: cited from earlier work
[5] = system: methadone-maintained male inpatients; conditions: DM at high doses (120, 240, 480 mg/day in increasing order); cited from earlier work
[6] = system: subjects with opioid dependence; assay: Double-blind DM add-on to methadone maintenance therapy, 12 weeks: methadone dose and urine opioid
[7] = BP subjects, after 12 weeks depakine add-on dextromethorphan vs pretest, FIG. 11
[8] = normal controls vs BP subjects, before and after treatment (data not shown)

In the case of `COc1ccc2c(c1)[C@]13CCCC[C@@H]1[C@H](C2)N(C)CC3` [DM, Dextromethorphan], the “plasma IL-6 concentration” value ([1]; between groups throughout 12-week treatment, FIG. 6) was “no significant differences”, the “plasma IL-8 concentration” value ([1]; between groups throughout 12-week treatment, FIG. 7) was “no significant differences” and the “plasma BDNF concentration” value ([1]; between groups throughout 12-week treatment, FIG. 8) was “no significant differences”. The “plasma TNF-alpha concentration” value ([1]; both high and low plasma DM groups vs placebo) was “Significantly lower plasma TNF-alpha concentration”, the “plasma IL-1beta concentration” value ([1]; both high and low plasma DM level groups vs placebo, FIG. 5) was “lower plasma IL-1beta concentration” and the “plasma TNF-alpha concentration” value ([1]; low plasma DM group compared with high plasma DM group) was “tendency of more decrease of plasma TNF-alpha concentration”. For the same molecule, the “plasma CRP concentration” value ([1]; only in low plasma DM group, FIG. 4) was “lower plasma CRP concentration”, the “HDRS score, DM vs placebo” value ([2]; BP I) was “no differences” and the “YMRS score, DM vs placebo” value ([2]; BP I) was “no differences”. The YMRS score ([2]; BP I, Baseline) was 8.08 ± 5.35, the YMRS score ([2]; BP I, Week 1) was 8.08 ± 5.35 and the YMRS score ([2]; BP I, Week 2) was 7.31 ± 5.00. The YMRS score ([2]; BP I, Week 4) was 5.86 ± 3.01, the YMRS score ([2]; BP I, Week 8) was 6.16 ± 3.61 and the YMRS score ([2]; BP I, Week 12) was 5.80 ± 4.04. For the same molecule, the “CGI-therapeutic effect score, DM vs placebo” value ([2]; BP I, p=0.07, FIG. 10) was “borderline significance; also recorded: Borderline improvement”, the “effectiveness in hypomania stage” value ([2]; BP II patients, dextromethorphan add-on depakine, after 8 weeks of treatment) was “more effective” and the YMRS score ([2]; BP II, Baseline) was 5.77 ± 3.25. It also gave a YMRS score ([2]; BP II, Week 1) of 5.60 ± 2.99, a YMRS score ([2]; BP II, Week 2) of 5.88 ± 3.13 and a YMRS score ([2]; BP II, Week 4) of 5.60 ± 2.90. For the same molecule, the YMRS score ([2]; BP II, Week 8 (p = 0.01 vs placebo)) was 4.40 ± 2.26, the YMRS score ([2]; BP II, Week 12 (p = 0.008 vs placebo)) was 4.26 ± 1.97 and the “YMRS score, DM vs placebo over time” value ([2]; BP II, F=5.68, p=0.02, FIG. 9) was “significant difference of YMRS score”. The “plasma IL-1β” value ([3]; BP patients, after the add-on DM treatment) was “decrease”, the “plasma IL-8 level” value [3, 7] was “significant decreasing” and the “plasma TNF-α level” value [3, 7] was “significant decreasing”. The “plasma BDNF” value [3, 8] was “no difference”, the “plasma CRP” value [3, 8] was “no difference” and the neuroprotection with post-treatment ([4]; DM added up to 60 minutes after the addition of LPS) was “Significant neuroprotection”. For the same molecule, the “number of dopamine neurons and dendrite morphology” value ([4]; pretreated with DM (10 μM) before LPS stimulation) was “significantly more numerous and the dendrites less affected”, the “concentration protecting dopamine neurons against LPS-induced reduction of dopamine uptake” value ([4]; rat primary mixed mesencephalic neuron-glia cultures) was 1 to 10 µM and the “protective effect in animal PD models” value (LPS and MPTP PD models) was “potent protective effect”. The “effects on heart rate, blood pressure, temperature and plasma bromide” value [5] was “mild elevations”, the percentage morphine-positive urine ([6]; both high (>30 ng/ml) and low (<=30 ng/ml) plasma DM level groups vs placebo, FIG. 2) was “lower percentage morphine-positive urine” and the methadone dosage change ([6]; low plasma DM level group (<=30 ng/ml) vs high plasma DM group and placebo, 12 weeks add-on to methadone, FIG. 1) was “highest tendency of decrease of methadone use”.
